The source of these data is publication PMC8741257, “Identification of novel non-toxic and anti-angiogenic α-fluorinated chalcones as potent colchicine binding site inhibitors” (Journal of Enzyme Inhibition and Medicinal Chemistry, 2022).

In series [1] the test system is six human cancer cell lines (MCF-7, MGC-803, HepG2, Hela, A549, U937). The series is described as follows: Antiproliferative activity, summary over the tested cancer cell lines. It counts as cell-based. The following applies: tested cancer cell lines, read-out: IC50, anti-proliferative activity. The method, then:
(§1) A549, MGC-803, MCF-7, HepG2 and Hela cells were seeded at the appropriate cell line density (3 × 10^3 to 4 × 10^3 cells/well). The cells were then incubated at 37 °C for 24 h in a humidified 5%CO2 in 96-well plates prior to experiments. After a further 72 h of incubation, cell proliferation was quantified with SRB ([…]) to determine the number of surviving cells. The absorbance at 560 nm was measured by microplate. The experiment was repeated three times, and the data were listed in the form of mean and standard deviation.
(§2) MGC-803 cells were collected and seeded into 96 well plates at a density of 8000/well. The mediums containing drugs and cell suspension were added into the well. The cells were incubated in 5% CO2 incubator at 37 °C for 72 h. Each well was added 10 µL CCK8 solution, and the incubation time was 3–4 h. The absorbance value at 450 nm was measured by microplate reader. Data are calculated with GraphPad Prism5 software.

The subject of series [2] is Hela (human cervical cancer cells). The series is described as follows: Antiproliferative activity (SRB assay). The class given is cell-based. The following applies: mean ± SD, three separated experiments, 72 h. The protocol:
(§3) MCF-7, MGC-803, Hela and HepG-2 cell lines were cultured in a base medium (90% DMEM and 10% FBS), A549 and U937 were cultured in a base medium (90% PRMI-1640 and 10% FBS) at 37 °C, 5% CO2 and a saturated humidity atmosphere. All the mediums were supplemented with 10% FBS and 1% […]/streptomycin (all cells were purchased from Shanghai Institutes for Biological Sciences, Chinese Academy of Sciences, Shanghai, China).
as §1

Series [3] has as its system A549 (human non-small cell lung cancer). The series is described as follows: Antiproliferative activity (SRB assay). The class given is cell-based. The following applies: mean ± SD, three separated experiments, 72 h. The method, then:
as §3, §1

In series [4] the test system is HepG2 (human liver cancer cells). In words: Antiproliferative activity (SRB assay). The class given is cell-based. The following applies: mean ± SD, three separated experiments, 72 h. The method, then:
as §3, §1

The subject of series [5] is MCF-7 (human breast cancer cells). In words: Antiproliferative activity (SRB assay). It counts as cell-based. The following applies: MCF7, mean ± SD, three separated experiments, 72 h. The protocol:
as §3, §1

Series [6] has as its system MGC-803 (human gastric cancer cells). In words: Antiproliferative activity (SRB / CCK-8 assay). The class given is cell-based. The following applies: mean ± SD. The method, then:
as §3, §1, §2

For series [7], the system named is U937 (human leukaemia cells). The series is described as follows: Antiproliferative activity (CCK-8 assay). It counts as cell-based. The following applies: U-937, mean ± SD, three separated experiments, 72 h. The protocol:
as §3, §2

Series [8] deals with LO2 (human hepatocyte cells). In words: Growth inhibition of normal human cells. The following applies: triplicate, mean ± SD. The class given is cell-based. The method, then:
(§4) The effect of compound 4c on three types of normal human cell lines including LO2 (human hepatocyte cells), 293 T (human embryonic kidney cell) and THP-1-derived macrophages was then determined.

In series [9] the test system is THP-1-derived macrophages. The series is described as follows: Growth inhibition of normal human cells. The class given is cell-based. The following applies: Macrophage, triplicate, mean ± SD. The method, then: as §4
Series [10] concerns 293 T (human embryonic kidney cell). The series is described as follows: Growth inhibition of normal human cells. It counts as cell-based. The following applies: HEK-293T, triplicate, mean ± SD. The protocol: as §4
[11] abbreviates: three separated experiments, 72 h.

In turn, `COC(=O)c1ccc2[nH]cc(/C=C(\F)C(=O)c3cc(OC)c(OC)c(OC)c3)c2c1` [4d, Methyl(Z)-3–(2-fluoro-3-oxo-3–(3,4,5-trimethoxyphenyl)prop-1-en-1-yl)-1H-indole-5-carboxylate] came in with a melting point of 80.4 to 81.8 °C. Moreover, the 50% inhibitory concentration (IC50) in series [1] is more than 5000 nM. In series [2], this compound displayed a concentration for half-maximal inhibition (IC50) of more than 5000 nM. For the same compound, the IC50 in series [3] is more than 5000 nM. The compound also had a half-inhibitory concentration (IC50) in series [4] of more than 5000 nM. The compound further came in with a half-inhibitory concentration (IC50) in series [5] of more than 5000 nM. For the same compound, in series [6] (setting [11]), the IC50 was more than 5000 nM. In series [7], the concentration for half-maximal inhibition (IC50) is more than 5000 nM.

As for `COc1ccc(/C=C\c2cc(OC)c(OC)c(OC)c2)cc1O` [CA-4, Combretastatin A4, reference compound], the IC50 was 8 ± 1 nM in series [2]; 5 ± 1 nM in [3]; 7 ± 1 nM in series [4]; 2 ± 1 nM in series [6] (Table 2, triplicate); 2 ± 1 nM in series [6] (setting [11]); 5 ± 1 nM in series [8]. The figures for the concentration for half-maximal inhibition (IC50) in [9], in series [10] and in [7] were 7 ± 1 nM, 12 ± 2 nM and 0.3 nM, respectively.

Take `COC(=O)c1ccc2c(/C=C(\F)C(=O)c3cc(OC)c(OC)c(OC)c3)c[nH]c2c1` [4a, Methyl(Z)-3–(2-fluoro-3-oxo-3–(3,4,5-trimethoxyphenyl)prop-1-en-1-yl)-1H-indole-6-carboxylate]: the melting point was 207.3 to 209.1 °C. Moreover, the IC50 in [1] is more than 5000 nM. For the same compound, the IC50 in [2] is more than 5000 nM. In addition, the IC50 in [3] is more than 5000 nM. Moreover, the IC50 in [4] is more than 5000 nM. Also, the half-inhibitory concentration (IC50) in series [5] is more than 5000 nM. In addition, in series [6] (setting [11]), the IC50 was more than 5000 nM. Moreover, in series [7], the IC50 is more than 5000 nM.
